Values of other authors, collected in patent US9283189B2, “Sustained-release preparation of ivabradine or pharmaceutically acceptable salts thereof” (Jiangsu Hengrui Medicine Co., Ltd., priority 2011, dated 2016).

Legend:
[1] = tested on: chronic stable angina

## COc1cc2c(cc1OC)CC(=O)N(CCCN(C)CC1Cc3cc(OC)c(OC)cc31)CC2 (centres unmarked) [Ivabradine]
5 mg twice daily, CV=38%
  Average plasma concentration at steady state: 10 ng/mL
70˜75% of the AUC
  Main half-life in plasma: 2 h
Chronic administration, 5 mg twice daily, CV=29%
  Maximum plasma concentration: 22 ng/mL
In patients
  Volume of distribution at steady state: ~100 L
In vivo
  Effective half-life: 11 h
  Plasma protein bound: approximately 70%
  Renal clearance: approximately 70 ml/min
  Total clearance: about 400 ml/min
In vivo, po
  Oral dose excreted unmetabolized in urine: About 4%
Oral administration, fasting condition
  Time to peak plasma level: about 1 hour
Oral dose range of 0.5 mg˜24 mg
  Kinetics (dose proportionality): linear
[1]; 5 mg and 7.5 mg twice daily, patients with chronic stable angina
  Angina attacks: significant decrease
[1]; human, in vivo
  Influence on glucose or lipid metabolism: no influence
  Rebound effect following the withdrawal of treatment: no rebound effect
